Source: US9182409B2, “Mass spectrometry imaging method for detecting and quantifying a target molecule in a tissue sample” (priority 2011, dated 2015)

Assay: Distribution and quantification of propranolol in whole-body mouse sections by MALDI mass spectrometry imaging
Format: in vivo
Settings: 7.5 mg/kg intravenous, 20 minutes post-injection, sagittal whole-body section, TEC-normalized
Experimental: Male Swiss mice weighing 25-40 g (Charles River, France) were used.
The animals were sacrificed by CO2 asphyxiation at 20 minutes post-injection.
The samples (control and dosed tissue) were sectioned into 20 μm-thick layers using a CM1510S cryostat (Leica Microsystems, Nanterre, France) cooled at −26° C. The sections were then deposited on conductive ITO (indium tin oxide) slides (Bruker Daltonics, Bremen, Germany).
This matrix was prepared at a concentration of 40 mg/ml in methanol/0.1% TFA (1:1, v/v). The matrix solution was deposited using the SunCollect spraying system (SunChrome, Germany).
This range of dilutions extends from 10 pmol/μl to 0.02 pmol/μl and includes seven points.
The images were obtained using an AutoFlex Speed MALDI-TOF mass spectrometer (Bruker Daltonics, Bremen, Germany) equipped with a Smartbeam laser. The data was generated in positive reflectron mode. A total of 700 spectra were obtained for each spot with a 1000 Hz laser frequency and a 300×300 μm′ image spatial resolution on a mass range of 100 Da to 1000 Da. The FlexImaging version 2.1 software was used to reconstruct the images.

CC(C)NCC(O)COc1cccc2ccccc12 (stereo not shown) [propranolol, Propranolol]
total quantity of the target analyte in the brain: about 5 ng
